Test results reported in ChEMBL document CHEMBL3603761 (Bioorg Med Chem, 2015).
pIC50, pKi: −log10 of the molar value. Calls of active or inactive are those of the source. No cut-off for these calls is given here.

Legend:
Autotaxin [1] = target: T1, Autotaxin (Homo sapiens, UniProt Q13822); test: Inhibition of human ATX phosphodiesterase expressed in Sf9 cells assessed as hydrolysis of FS-3 at 10 uM measured after 5 to 25 mins by fluorescence assay
MeWo [2] = test: Inhibition of cell migration in human MeWo cells assessed as gap closure distance at 5 uM after 24 hrs by wound healing assay; assay type: functional, cell-based
SK-OV-3 [3] = test: Inhibition of cell migration in human SKOV3 cells assessed as gap closure distance at 5 uM after 24 hrs by wound healing assay; assay type: functional, cell-based
Autotaxin [4] = target: T1, Autotaxin; test: Inhibition of human ATX phosphodiesterase expressed in Sf9 cells assessed as hydrolysis of FS-3 measured after 5 to 25 mins by fluorescence assay
Autotaxin [5] = target: T1, Autotaxin; test: Irreversible inhibition of human ATX phosphodiesterase activity expressed in Sf9 cells assessed as hydrolysis of FS-3 preincubated for 2 mins before substrate addition measured 1000 fold dilution by fluorescence assay
OVCAR-3 [6] = test: Inhibition of cell migration in human OVCAR3 cells assessed as gap closure distance at 5 uM after 24 hrs by wound healing assay; assay type: functional; conditions: OVCAR-3, 24 h
MDA-MB-231 [7] = test: Cytotoxicity against human MDA-MB-231 cells after 48 hrs by CellTiter-Blue assay; assay type: functional, cell-based; conditions: MDA-MB-231, 48 h
[8] = Cytotoxicity against human SB2 cells after 48 hrs by CellTiter-Blue assay; assay type: functional, cell-based; conditions: SB2, 48 h
HT-29 = test: Cytotoxicity against human HT-29 cells after 48 hrs by CellTiter-Blue assay; assay type: functional, cell-based; conditions: HT-29, 48 h
MeWo [9] = test: Antitumor activity against human MeWo cells xenografted in athymic nude mouse assessed as reduction of ATX level in serum at 50 mg/kg, ip administered every other day of 21 days post tumor cell injection; assay type: functional, organism-based
MDA-MB-231 [10] = test: Inhibition of cell migration in human MDA-MB-231 cells assessed as gap closure distance at 5 uM after 24 hrs by wound healing assay; assay type: functional; conditions: MDA-MB-231, 24 h
Autotaxin [11] = target: T1, Autotaxin; test: Inhibition of human ATX phosphodiesterase expressed in Sf9 cells assessed as hydrolysis of FS-3 preincubated for 2 mins before substrate addition measured after 5 to 25 mins by fluorescence assay
MeWo [12] = test: Cytotoxicity against human MeWo cells assessed as reduction of cell viability after 48 hrs by CellTiter-Blue assay; assay type: functional
MeWo [13] = test: Cytotoxicity against human MeWo cells after 48 hrs by CellTiter-Blue assay; assay type: functional, cell-based
Mus musculus [14] = test: Toxicity in human MeWo cells xenografted athymic nude mouse assessed as severe dehydration at 50 mg/kg, ip administered every other day of 21 days post tumor cell injection measured on day 45; assay type: organism-based; conditions: in vivo, 504 h
Mus musculus [15] = test: Toxicity in human MeWo cells xenografted athymic nude mouse assessed as mortality at 50 mg/kg, ip administered every other day of 21 days post tumor cell injection measured on day 45; assay type: organism-based; conditions: in vivo, 504 h
PC-3 = test: Cytotoxicity against human PC3 cells after 48 hrs by CellTiter-Blue assay; assay type: functional, cell-based; conditions: PC-3, 48 h
MeWo [16] = test: Inhibition of cell migration in human MeWo cells assessed as gap closure distance at 5 uM after 24 hrs by wound healing assay in presence of 1 uM of LPA; assay type: functional, cell-based
OVCAR-3 [17] = test: Inhibition of cell migration in human OVCAR3 cells assessed as gap closure distance at 5 uM after 24 hrs by wound healing assay in presence of 1 uM of LPA; assay type: functional, cell-based
SK-OV-3 [18] = test: Cytotoxicity against human SKOV3 cells after 48 hrs by CellTiter-Blue assay; assay type: functional, cell-based; conditions: SK-OV-3, 48 h
MeWo [19] = test: Antitumor activity against human MeWo cells xenografted in athymic nude mouse assessed as necrotic endothelial cells at 50 mg/kg, ip administered every other day of 21 days post tumor cell injection up to 48 days followed by administered 40 mg/kg, ip using hematoxylin and eosin staining; assay type: functional, organism-based
OVCAR-3 [20] = test: Cytotoxicity against human OVCAR3 cells after 48 hrs by CellTiter-Blue assay; assay type: functional, cell-based; conditions: OVCAR-3, 48 h
MeWo [21] = test: Antitumor activity against human MeWo cells xenografted in athymic nude mouse assessed as reduction of KC/CXCL-1 level in serum at 50 mg/kg, ip administered every other day of 21 days post tumor cell injection; assay type: functional, organism-based
MeWo [22] = test: Antitumor activity against human MeWo cells xenografted in athymic nude mouse assessed as necrosis in tumor at 50 mg/kg, ip administered every other day of 21 days post tumor cell injection up to 48 days followed by administered 40 mg/kg, ip using hematoxylin and eosin staining; assay type: functional, organism-based
MDA-MB-231 [23] = test: Inhibition of cell migration in human MDA-MB-231 cells assessed as gap closure distance at 5 uM after 24 hrs by wound healing assay in presence of 1 uM of LPA; assay type: functional, cell-based
SK-OV-3 [24] = test: Inhibition of cell migration in human SKOV3 cells assessed as gap closure distance at 5 uM after 24 hrs by wound healing assay in presence of 1 uM of LPA; assay type: functional, cell-based
Mus musculus [25] = test: Toxicity in human MeWo cells xenografted athymic nude mouse assessed as mortality at 50 mg/kg, ip administered every other day of 21 days post tumor cell injection up to 48 days followed by administered 40 mg/kg, ip; assay type: organism-based; conditions: in vivo
MeWo [26] = test: Antitumor activity against human MeWo cells xenografted in athymic nude mouse at 30 mg/kg, ip administered every other day of 21 days post tumor cell injection; assay type: functional, organism-based
MeWo [27] = test: Antitumor activity against human MeWo cells xenografted in athymic nude mouse assessed as reduction of ATX level in serum at 30 mg/kg, ip administered every other day of 21 days post tumor cell injection; assay type: functional, organism-based

Question: Which inhibition (Autotaxin [1]) does the source give for C=C(CCCCCC)S(=O)(=O)CCC[N+](C)(C)C here?
Answer: The inhibition was “inactive”.

Question: What does the source list for C=C(CCCCCCCCCCCCCCCC)S(=O)(=O)CCC[N+](C)(C)C.[Cl-]?
Answer: inhibition (MeWo [2]): Active; inhibition (SK-OV-3 [3]): Active; pKi (Autotaxin [4]): 5.46; inhibition (Autotaxin [5]): Active; inhibition at 5 µM (OVCAR-3 [6]): 75%; pIC50 (MDA-MB-231 [7]): 6.41; pIC50 [8]: 5.31; pIC50 (HT-29): 5.68; Activity (MeWo [9]): Active; inhibition at 5 µM (MDA-MB-231 [10]): 75%; inhibition (Autotaxin [11]): inactive; Activity (MeWo [12]): <25%; pIC50 (MeWo [13]): 5.39; Activity (Mus musculus [14]): Toxic; Activity (Mus musculus [15]): Toxic; pIC50 (PC-3): 5.71; inhibition (MeWo [16]): Active; inhibition (OVCAR-3 [17]): Active; pIC50 (SK-OV-3 [18]): 5.17; Activity (MeWo [19]): Active; pIC50 (OVCAR-3 [20]): 5.35; Activity (MeWo [21]): Active; Activity (MeWo [22]): Active; inhibition (MDA-MB-231 [23]): Active; inhibition (SK-OV-3 [24]): Active; Activity (Mus musculus [25]): Non-toxic

Question: With C=C(CCCCCCCCCCCC)S(=O)(=O)CCC[N+](C)(C)C as the compound, how does the pKi (Autotaxin [4]) read?
Answer: The pKi was 5.75.

Question: With C=C(CCCCCCCCCCCCCCCC)S(=O)(=O)c1ccccc1 as the compound, how does the inhibition (Autotaxin [5]) read?
Answer: Its inhibition is “inactive”.

Question: What about the inhibition (Autotaxin [1]) of the same compound?
Answer: The inhibition was “inactive”.

Question: With C=C(CCCCCCCC/C=C\CCCCCCCC)S(=O)(=O)CCC[N+](C)(C)C as the compound, how does the pKi (Autotaxin [4]) read?
Answer: Its pKi is 5.61.

Question: For O=C1S/C(=C\c2ccc(OCc3cccc(B(O)O)c3)cc2)C(=O)N1Cc1ccc(F)cc1, which Activity (MeWo [12]) is on record?
Answer: The Activity was <25%.

Question: What about the Activity (MeWo [26]) of the same compound?
Answer: The Activity was “inactive”.

Question: And the Activity (MeWo [27])?
Answer: Its Activity is “inactive”.

Question: For O=C(CCN1CCN(C(=O)OCc2cc(Cl)cc(Cl)c2)CC1)c1ccc2[nH]c(=O)oc2c1, which Activity (MeWo [26]) is on record?
Answer: The Activity was “inactive”.

Question: What about the Activity (MeWo [27]) of the same compound?
Answer: Its Activity is “inactive”.
